One molecule from EP4772500A1, “NOVEL ISOXAZOLE COMPOUND AS TM4SF5-SPECIFIC INHIBITOR AND USE THEREOF” (Seoul National University R&DB Foundation, priority 2023, dated 2025) can be followed below.

Like-named read-outs stand apart in the source and are kept apart here.

The target in experiment [1] is T1, Strep-TM4SF5 obtained from HEK293FT (Homo sapiens, UniProt O14894).
T1 construct: expressed in transfected cells; host or cells: HEK293FT, transient transfection (48 h); protein captured on streptavidin agarose from the cell extract
T1 sequence (O14894 1-197): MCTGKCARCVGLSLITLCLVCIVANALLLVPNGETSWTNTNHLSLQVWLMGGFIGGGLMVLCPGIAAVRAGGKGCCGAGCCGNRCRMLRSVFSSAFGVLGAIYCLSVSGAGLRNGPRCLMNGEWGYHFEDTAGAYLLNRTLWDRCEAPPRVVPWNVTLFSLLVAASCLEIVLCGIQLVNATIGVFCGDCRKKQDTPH
The experiment in a line: Binding of 14C-labelled ST-5-002 to pulled-down Strep-TM4SF5. The method, then:
For Huh7KO cells, stable cell lines were established by infecting with a retrovirus inducing the expression of pBabe-HA-EV or pBabe-HA-TM4SF5. Cell extracts were obtained, and extracts containing 0.2 or 0.25 mg of protein were reacted with an anti-HA antibody and HA-tagged TM4SF5, or with streptavidin agarose resin for Strep-PD-L1 or Strep-TM4SF5 at 4°C for 2 hours for pulldown. Subsequently, in the presence or absence of cold ST-5-002 (400 µM), the samples were treated with ^14C-labelled ST-5-002 (10 or 25 µM) and reacted at 4°C for 1 hour, after which radioactive isotope values were repeatedly measured using a TriCarb scintillation counter (PerkinElmer, Waltham, MA).
After culturing HEK293FT cells transfected with Strep-EV or Strep-TM4SF5 expression vectors, or Huh7KO cells stably expressing pBabe-HA-EV or pBabe-HA-TM4SF5, cell extracts were obtained. Extracts containing 1 mg of protein were pulled down by reacting with streptavidin agarose resin for Strep-tagged TM4SF5 or with an anti-HA antibody for HA-tagged TM4SF5 at 4°C for 4 hours. The pulled-down proteins were treated with ^14C-labelled ST-5-002 at various concentrations (10 nM, 100 nM, 1 µM, 5 µM, 10 µM, 50 µM) and reacted at 4°C for 1 hour, after which radioactive isotope values were repeatedly measured using a TriCarb scintillation counter (PerkinElmer, Waltham, MA). The EC50 was calculated by normalizing the average radioactive isotope value of TM4SF5 obtained through the measurements by dividing it by the average value of EV.
(a) Expression vectors for a control vector, TM4SF1, TM4SF5 WT, and R113Q, C118/145A, H127A, and N138A mutants of TM4SF5 were injected into the HEK293FT cell line, which was confirmed not to express TM4SF5, and allowed to express for 48 hours. (b) Huh7KO cell lines, in which TM4SF5 was knocked out in Huh7, were stably infected with a retrovirus encoding pBabe-EV or pBabe-TM4SF5-HA. […] For the experimental samples of each condition, radioactive isotope values were repeatedly measured using a TriCarb scintillation counter (PerkinElmer, Waltham, MA).

The test system of experiment [2] is SNU449T7 cells. The experiment in a line: Subcutaneous xenograft liver cancer model in severely combined immunodeficient animals. It counts as in vivo, NOD-SCID mice. The method, then:
Cells expressing TM4SF5 (SNU449T7) were cultured in a cell incubator at 37°C and 5% CO2. The next day, the cells were detached by treating with a T/E (Trypsin/EDTA) solution and centrifuged at 150 × g for 3 minutes to obtain a cell pellet. Thereafter, the supernatant was removed, and the pellet was prepared by resuspension in phosphate buffered saline (PBS). For the generation of cancer tissue, 5 × 10^5 cells/100 µl were injected once subcutaneously into the right thigh area of 6-week-old male NOD/SCID mice. At this time, the animals were anesthetized by inhalation with […] isoflurane and injected. From the 15th day after the cell injection, drug ST-5-002 was intraperitoneally injected at 2.5 mg/kg of body weight at 100 µl per dose for a total of 8 times every 3 days. The body weight and tumor volume of the animals were measured every 3 days from the 12th day after the cell injection. The tumor volume was calculated as (length × width × width)/2 (mm^3) by measuring the length and width of the tumor. On the 36th day after the cell (SNU449T7) injection, the animals were sacrificed, and cancer tissues were obtained and analyzed.
SNU449T7 cells were subcutaneously injected into the thighs of 6-week-old male NOD/CB17-Prkdc^scid/J mice (NOD-SCID mice lacking or having non-functional immune cells such as T cells, B cells, and NK cells, n=10), at a dose of 5X10^5 cells. One week later, vehicle or the drug ST-5-002 was intravenously injected at a concentration of 2.5 mg/kg of body weight (mpk) twice a week. Three days after the 8th drug injection, the animals were sacrificed, cancer tissues were recovered and photographed, and immunohistochemistry, Western blot, and qRT-PCR analyses were performed.

The subject of experiment [3] is SNU449-TM4SF5 and Huh7-Con. Kind of experiment: qRT-PCR/Western blotting of laminin γ2, AFP and liver cancer markers in TM4SF5-expressing hepatocytes. It counts as cell-based, human. As to conditions: 2.5 µM, 24 hours (FIG. 8h-i).

One may read the EC50 as the concentration that produces a half-maximal response. Take `Cc1ccc(C(=O)Nc2ccc(-c3cc(-c4ccc(O)cc4)no3)cc2)cc1` [ST-5-002, N-(4-(3-(4-hydroxyphenyl)isoxazole-5-yl)phenyl)-4-methylbenzamide]: in experiment [1] (14C-labelled ST-5-002, Strep-TM4SF5, 4°C, 1 hour (FIG. 19a), read-out: EC50 of binding to TM4SF5), the EC50 turned out to be 8.87 µM. For the same molecule, the “binding of 14C-labelled ST-5-002 compared to the control and TM4SF1” value in experiment [1] (Strep-TM4SF5 from HEK293FT (FIG. 19a)) was “bound”. The EC50 in experiment [1] (range depending on the cell source and the type of tag (Strep-TM4SF5 and HA-TM4SF5), read-out: EC50 values of binding to TM4SF5) lay within 0.85 to 8.8 µM. Moreover, the “inhibitory efficacy in cancer formation in terms of tumor volume and weight” value in experiment [2] (2.5 mg/kg of body weight (mpk), 8 injections (FIG. 24c)) is “statistically significant inhibitory efficacy”. The tumor size result in experiment [2] (2.5 mg/kg of body weight (mpk), 8 injections, vs vehicle (FIG. 24b)) is “decreased”. In addition, in experiment [2] (immunostaining (FIG. 24d)), the “SLAMF7 staining in the small cancer areas” value is “much more distinctly strong staining level”; the “degree of PD-L1 staining” value is given as “decreased”; the “expression of TM4SF5” value is given as “did not change significantly”; the “expressions of AFP and laminin γ2” value was “significantly reduced”. Also, the “staining level of F4/80 and expressions of CCL5 and CCL20” value in experiment [2] (immunostaining, vs control group (FIG. 24d)) is recorded as “lower”. Further, the “elevated expressions of laminin γ2, AFP, phosphorylation of STAT3, FUCA and CD34” value in experiment [3] is recorded as “inhibited”.
